Results as given in US11084852B2, “Ubiquitin interacting motif peptides as therapeutics” (OKLAHOMA MEDICAL RESEARCH FOUNDATION, priority 2015, dated 2021).
Positions of bridges follow the written chain, without caps; N, C: chain ends. Non-standard residues stand in square brackets, D forms with d. No end group written: not given here.

What was measured:
[1] = in vivo; cited from earlier work
[2] = free acid; cited from earlier work
ER stress = ER stress and inflammation after IP3R1 downregulation; assay type: cell-based
From the text: FIGS. 22A-D. Downregulation of IP3R1 by epsins augments ER stress-mediated inflammation in Endothelium. (FIG. 22A) Deletion of IP3R1 auguments ER stress mediated by athero-prone substances. (FIG. 22B) Inhibition of ER stress by 4-PBA protected athero-prone substances mediated ER stress due to loss of IP3R1. (FIG. 22C) Loss of epsins auguments NF-kB signaling. (FIG. 22D) NF-kB augmentation can be prevented by ER stress inhibitor 4-PBA.

[3] = cited from earlier work
gliomas = settings: before, at the time of or after tumor implantation; cited from earlier work
[4] = HFD-induced obesity model; assay type: in vivo; settings: i.p., mice fed HFD
From the text: FIGS. 33A-C. […] (FIG. 33A) Male and (FIG. 33B) Female mice, n=8 in each group; P<0.001. (FIG. 33C) Representative image of PBS or AP-UIM peptide administration for 3 months.
The inventors have tested a UIM peptide (AP-UIM) in HFD-induced obesity model.

[5] = system: Lewis lung carcinoma (LLC) tumors; test: Subcutaneous LLC tumor model; parameters: species or system mice; settings: mouse, in vivo
From the text: C56BL/6 mice and TRAMP prostate cancer models were obtained from Jackson Laboratory. SCID/NOD immune-deficient mice were purchased from Charles River Labs (Wilmington, Mass.). WT-Flk, EC-iDKO, EC-iDKO-Flk and EC-iDKO-Notch mice were generated by crossing conditional double knockout mice (EC-iDKO) with Flk-1^fl/fl or NICD^LSL mice as described in (FIGS. 13A-D) (Pasula et al., 2012; Tessneer et al., 2014). All animal protocols have been approved by the IACUC in Oklahoma Medical Research Foundation. Animal tumor models were established as follows: • (1) Subcutaneous Tumor Models (LLC, melanoma B16 and glioma U87/SCID): LLC, melanoma and glioma tumor models were established as previously described (Pasula et al., 2012). Synthetic peptides were administered at 10 mg/kg intravenously every second day beginning after small tumors were established (20-50 mm^3; approximately 12 days post implantation). Tumor volumes were monitored every other day until euthanized following IACUC tumor scoring system. • (2) TRAMP Prostate Tumor Model (Transgenic Adenocarcinoma of Mouse Prostate). […] Mortality rates were recorded. Prostate tumors were analyzed by weighing genitourinary tract (GU), H&E staining, IHC, IF staining and Western blotting as previously described (Pasula et al., 2012; Tessneer et al., 2013). Lymph nodes, lung, liver, spleen and bones were similarly analyzed for metastasis. • (3) B16 Melanoma Metastasis Model. […] Mice were sacrificed after 5 weeks and tissues (including lung, liver and lymph nodes, etc.) were harvested and analyzed for metastasis by gross morphology, H&E, IHC or IF staining, as well as Western blotting. • (4) Orthotopical Glioma Tumor Models (U87/SCID and GL261/C56BL/6). […] Tumors were monitored by MRI as previously described (Pasula et al., 2012). […] Tumor volume was analyzed by MRI every other day until the mice died or were euthanized following IACUC tumor scoring system. Mortality rates were recorded. […]

EGFR = target: T1, EGFR (Mus musculus, UniProt Q01279); test: Biochemical pulldown assay using ex vivo tumors; assay type: binding, mice; settings: biotinylated peptide, ex vivo tumor lysates
T1 construct: from tissue; host or cells: LLC or GL261 glioma subcutaneous tumors from C57BL/6 mice
Protocol: (§1) (FIGS. 15A and 15C) LLC (FIG. 15A) or Glioma GL261 (FIG. 15C) subcutaneous tumors removed from C57BL/6 mice were homogenized in lysis buffer containing 50 mM Tris-HCl pH 7.5, 150 mM NaCl, 0.05% NP-40, 10% glycerol, 1× cocktail (Roche) and 20 mM NEM (N-ethylmaleimide). Lysate protein concentration was determined by BCA kit (Pierce). 2 mg of total lysate was co-incubated with 50 μg of either biotinylated UPI peptide, UPI mutant (UPI-Mut) peptide or control peptide. Neutri-Avidin beads (Invitrogen) were then added to pulldown biotinylated UPI or control peptide. These beads were subjected to two washes with lysis buffer and two washes with ½ lysis solutions. Afterwards, beads were boiled in 2× loading buffer and the supernatant was used for Western blot analysis of VEGFR2, PDGFR-β, EGFR and FGFR1; (FIGS. 15B and 15D) Quantification of peptide pulldown of VEGFR2 in LLC (FIG. 15B) and Glioma GL261 (FIG. 15D) tumors, n=5; P values are indicated in the figures.
(§2) LLC or GL261 glioma tumors was homogenized in lysis buffer containing 50 mM Tris-HCl pH7.5, 150 mM NaCl, 0.05% NP-40, 10% Glycerol, 1× cocktail, and 20 mM NEM. Protein concentration was determined by BCA kit (Pierce). 0.5-2 mg lysates were co-incubated with 100 μM biotinylated UPI or control peptides, followed by the addition of Neutri-Avidin beads (Invitrogen) for pulldown binding assay. Beads were washed twice with lysis buffer, then twice with 1:1 lysis buffer PBS. Beads were then boiled for 5 min in 2× sample loading buffer. Denatured proteins were subjected to Western blotting using anti-VEGFR2, anti-EGFR, anti-FGFR1 and anti-PDGFR-β antibodies.

FGFR1 = target: T2, FGFR1 (Mus musculus, UniProt P16092); test: Biochemical pulldown assay using ex vivo tumors; assay type: binding, mice; settings: biotinylated peptide, ex vivo tumor lysates
T2 construct: from tissue; host or cells: LLC or GL261 glioma subcutaneous tumors from C57BL/6 mice
Protocol: as §1, §2

PDGFR-β = target: T3, PDGFR-β (Mus musculus, UniProt P05622); test: Biochemical pulldown assay using ex vivo tumors; assay type: binding, mice; settings: biotinylated peptide, ex vivo tumor lysates
T3 construct: from tissue; host or cells: LLC or GL261 glioma subcutaneous tumors from C57BL/6 mice
Protocol: as §1, §2

VEGFR2 = target: T4, VEGFR2 (Mus musculus, UniProt P35918); test: Biochemical pulldown assay using ex vivo tumors; assay type: binding, mice; settings: biotinylated peptide, ex vivo LLC or GL261 tumor lysates
T4 construct: from tissue; host or cells: LLC or GL261 glioma subcutaneous tumors from C57BL/6 mice
Protocol: as §1, §2

T3 sequence (P05622 32-1098): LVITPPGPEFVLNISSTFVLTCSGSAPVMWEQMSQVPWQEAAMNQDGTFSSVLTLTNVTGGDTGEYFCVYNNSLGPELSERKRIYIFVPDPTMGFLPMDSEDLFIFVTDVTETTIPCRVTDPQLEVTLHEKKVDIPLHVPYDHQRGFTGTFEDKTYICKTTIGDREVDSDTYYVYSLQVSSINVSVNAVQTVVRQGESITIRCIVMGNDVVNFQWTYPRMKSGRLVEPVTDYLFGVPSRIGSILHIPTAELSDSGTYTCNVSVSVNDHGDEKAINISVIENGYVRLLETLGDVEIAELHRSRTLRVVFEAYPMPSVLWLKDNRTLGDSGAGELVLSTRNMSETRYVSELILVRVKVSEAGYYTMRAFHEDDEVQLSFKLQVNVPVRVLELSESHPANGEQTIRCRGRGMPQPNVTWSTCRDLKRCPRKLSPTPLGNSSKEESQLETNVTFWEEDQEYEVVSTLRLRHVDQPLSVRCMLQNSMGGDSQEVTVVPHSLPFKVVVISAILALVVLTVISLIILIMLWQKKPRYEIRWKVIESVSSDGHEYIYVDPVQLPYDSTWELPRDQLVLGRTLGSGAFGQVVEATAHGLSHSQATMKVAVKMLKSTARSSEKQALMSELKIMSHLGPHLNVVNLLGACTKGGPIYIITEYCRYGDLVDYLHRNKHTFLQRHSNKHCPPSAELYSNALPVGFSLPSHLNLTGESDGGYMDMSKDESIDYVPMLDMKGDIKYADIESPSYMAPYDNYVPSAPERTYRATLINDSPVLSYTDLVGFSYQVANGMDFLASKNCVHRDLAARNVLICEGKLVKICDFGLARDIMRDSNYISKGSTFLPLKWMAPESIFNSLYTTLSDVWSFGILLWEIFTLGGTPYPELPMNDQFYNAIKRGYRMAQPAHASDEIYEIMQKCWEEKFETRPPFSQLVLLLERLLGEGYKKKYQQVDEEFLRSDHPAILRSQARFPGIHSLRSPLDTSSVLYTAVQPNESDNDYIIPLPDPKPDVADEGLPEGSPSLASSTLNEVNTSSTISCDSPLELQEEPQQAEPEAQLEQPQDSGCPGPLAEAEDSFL
T2 sequence (P16092 22-822): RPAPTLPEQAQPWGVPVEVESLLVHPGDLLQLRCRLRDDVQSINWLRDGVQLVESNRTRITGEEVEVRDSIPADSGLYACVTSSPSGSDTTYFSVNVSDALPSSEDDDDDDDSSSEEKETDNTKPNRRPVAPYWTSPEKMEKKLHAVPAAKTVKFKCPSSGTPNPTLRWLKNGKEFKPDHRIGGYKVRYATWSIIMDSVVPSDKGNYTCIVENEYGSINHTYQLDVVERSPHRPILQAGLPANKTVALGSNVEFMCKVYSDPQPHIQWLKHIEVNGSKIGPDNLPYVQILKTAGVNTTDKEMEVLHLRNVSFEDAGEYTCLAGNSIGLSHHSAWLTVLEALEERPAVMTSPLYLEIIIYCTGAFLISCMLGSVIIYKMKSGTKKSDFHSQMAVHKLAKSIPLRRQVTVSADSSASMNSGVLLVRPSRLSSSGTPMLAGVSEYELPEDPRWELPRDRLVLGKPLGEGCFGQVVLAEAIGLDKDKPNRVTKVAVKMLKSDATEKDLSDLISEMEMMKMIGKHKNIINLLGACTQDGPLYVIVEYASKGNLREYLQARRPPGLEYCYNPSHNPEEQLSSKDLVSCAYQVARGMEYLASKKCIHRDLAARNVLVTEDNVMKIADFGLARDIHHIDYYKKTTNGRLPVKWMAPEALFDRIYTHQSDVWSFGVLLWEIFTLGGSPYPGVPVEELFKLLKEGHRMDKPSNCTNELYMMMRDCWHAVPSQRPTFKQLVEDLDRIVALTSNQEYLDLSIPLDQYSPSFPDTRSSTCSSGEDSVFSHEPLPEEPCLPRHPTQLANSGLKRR
T4 sequence (P35918 20-1345): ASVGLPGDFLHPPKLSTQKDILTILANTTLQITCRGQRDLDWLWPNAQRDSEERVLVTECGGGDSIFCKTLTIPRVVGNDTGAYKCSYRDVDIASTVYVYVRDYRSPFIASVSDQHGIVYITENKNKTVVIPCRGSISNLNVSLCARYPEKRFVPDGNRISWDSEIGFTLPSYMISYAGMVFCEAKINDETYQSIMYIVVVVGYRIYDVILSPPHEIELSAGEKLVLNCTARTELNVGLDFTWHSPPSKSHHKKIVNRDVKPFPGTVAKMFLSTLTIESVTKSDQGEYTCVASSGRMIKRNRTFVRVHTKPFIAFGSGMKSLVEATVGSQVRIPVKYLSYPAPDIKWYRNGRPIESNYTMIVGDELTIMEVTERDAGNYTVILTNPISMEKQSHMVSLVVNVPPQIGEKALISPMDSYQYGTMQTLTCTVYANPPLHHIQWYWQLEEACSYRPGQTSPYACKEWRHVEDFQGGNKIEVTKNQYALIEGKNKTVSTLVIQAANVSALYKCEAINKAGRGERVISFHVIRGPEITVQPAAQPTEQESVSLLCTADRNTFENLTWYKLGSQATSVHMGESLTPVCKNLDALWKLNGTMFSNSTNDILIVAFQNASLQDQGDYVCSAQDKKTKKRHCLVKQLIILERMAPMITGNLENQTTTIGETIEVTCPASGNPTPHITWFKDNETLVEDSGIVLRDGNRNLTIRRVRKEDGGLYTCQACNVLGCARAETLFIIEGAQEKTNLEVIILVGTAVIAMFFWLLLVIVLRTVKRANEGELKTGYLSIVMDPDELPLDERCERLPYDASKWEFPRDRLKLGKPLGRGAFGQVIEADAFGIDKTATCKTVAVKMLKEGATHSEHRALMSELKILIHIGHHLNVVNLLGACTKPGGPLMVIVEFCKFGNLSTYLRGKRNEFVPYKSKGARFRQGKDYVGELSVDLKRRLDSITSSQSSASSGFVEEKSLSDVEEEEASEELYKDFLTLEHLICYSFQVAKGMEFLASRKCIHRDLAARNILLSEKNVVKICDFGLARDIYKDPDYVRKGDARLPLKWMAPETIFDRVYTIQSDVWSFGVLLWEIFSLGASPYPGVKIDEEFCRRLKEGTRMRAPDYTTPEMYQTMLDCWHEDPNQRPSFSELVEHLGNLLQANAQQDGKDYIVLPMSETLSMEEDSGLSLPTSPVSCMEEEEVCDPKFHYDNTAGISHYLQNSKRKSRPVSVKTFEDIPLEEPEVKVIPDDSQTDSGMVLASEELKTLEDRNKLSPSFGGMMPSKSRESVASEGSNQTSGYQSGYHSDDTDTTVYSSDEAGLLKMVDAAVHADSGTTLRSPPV

Molecule: CC(C)(C)[N+]([O-])=Cc1ccc(S(=O)(=O)O)cc1S(=O)(=O)O [2,4-ds PBN, 2,4-disulfonyl phenyl-tert-butyl nitrone]
- efficacy compared to PBN [1]: unexpected increase in efficacy as compared to PBN
- toxicity compared to PBN [1]: marked and highly significant decrease in toxicity as compared to PBN
- solubility in water [2]: greater than 1 gram/ml

Molecule: O=C(O)CCCc1ccccc1 [4-PBA]
- ER stress and inflammation (ER stress): inhibits ER stress and inflammation

Molecule: CC(C)(C)[N+]([O-])=Cc1ccccc1 [PBN, phenyl N-tert-butyl nitrone]
- tissue distribution ([3]; rat, in vivo): readily and rapidly distributed almost equally to all tissues
- half-life ([3]; rats): about 132 minutes
- tumor development (gliomas) (gliomas): able to control tumor development

Molecule: AP-UIM: Antennapedia (penetratin) conjugated to the N-terminus of the epsin UIM peptide, SEQ ID NO: 40 (RQIKIWFQNRRMKWKKSGEEELQLQLALAMSKEE; not fully specified (some residues))
- body weight gain [4]: significantly attenuated body weight gain

Molecule: UPI-Mut: UPI bearing the Q9A/A13S/K16A triple mutation in the epsin UIM, SEQ ID NO: 43 ([dS]G[dE][dE][dE][dL][dQ][dL][dA][dL][dA][dL][dS][dM][dS][dA][dE][dE][dM]G[dC][dI][dK][dS][dK][dR][dK][dC][dR]G[dD][dK]G[dP][dD][dC]; disulfide 28-36 (inferred); not fully specified)
- tumor growth in LLC tumor-bearing mice, variant peptides [5]: failed to inhibit tumor growth compared to mice treated with UPI peptide
- co-precipitation of EGFR (EGFR): neither UPI nor UPI-Mut peptide pulled down
- co-precipitation of FGFR1 (FGFR1): neither UPI nor UPI-Mut peptide pulled down
- co-precipitation of PDGFR-β (PDGFR-β): neither UPI nor UPI-Mut peptide pulled down
- binding to VEGFR2 in pulldown (VEGFR2): exhibited reduced binding to VEGFR2
